Values of other authors in patent US9222055B2, “High intensity fragrances” (TAKASAGO INTERNATIONAL CORPORATION, priority 2009, dated 2015).
Where two headings read alike, the source gives them in different places.

Experiments:
[1] = for Readily biodegradable: Table 1
[2] = Table 1, measured value where available
[3] = evidence from prior art
[4] = Table 19, ingredients of Comparative Fragrance K
[5] = Table 18, ingredients of Comparative Fragrance J

Which Readily biodegradable [1] does the source give for CC1=CCC(O)(C(C)C)CC1 (stereo not shown) [1-terpinen-4-ol] here?
The Readily biodegradable was “No”.

And the LogP [2]?
The LogP was 3.26.

With CC(C)CC1CC(C)(O)CCO1 (stereo not shown) [2-isobutyl-4-methyltetrahydro-2H-pyran-4-ol] as the compound, how does the Bio-Degradable [1, 4] read?
The Bio-Degradable was “No”.

Which Readily biodegradable [1] does the source give for C=CCOC(=O)CCCCC [ALLYL HEXANOATE, allyl hexanoate] here?
Its Readily biodegradable is “Yes”.

With COc1ccc(C=O)cc1 [ANISIC ALDEHYDE, anisic aldehyde] as the compound, how does the Readily biodegradable [1] read?
Its Readily biodegradable is “Yes”.

For CC(=O)/C=C/C1C(C)=CCCC1(C)C (stereo not drawn) [Alpha ionone], which Bio-Degradable [1, 4] is on record?
The Bio-Degradable was “No”.

Which allergen classification [3] does the source give for CCCCC/C(C=O)=C/c1ccccc1 [Amyl cinnamic aldehyde] here?
Its allergen classification is “strong allergens”.

With CC(=O)OCc1ccccc1 [BENZYL ACETATE, benzyl acetate] as the compound, how does the biodegradability classification ([1]; OECD 301B or OECD 301F, Test Plan for Benzyl Derivatives) read?
Its biodegradability classification is “readily biodegradable”.

What about the Readily biodegradable [1] of the same compound?
The Readily biodegradable was “Yes”.

And the Bio-Degradable [1, 4]?
The Bio-Degradable was “Yes”.

With OCc1ccccc1 [BENZYL ALCOHOL, benzyl alcohol] as the compound, how does the Readily biodegradable [1] read?
Its Readily biodegradable is “Yes”.

For CCCCOC(C)=O [BUTYL ACETATE, butyl acetate], which Readily biodegradable [1] is on record?
The Readily biodegradable was “Yes”.

What about the LogP [2] of the same compound?
Its LogP is 1.78.

Which Bio-Degradable [1, 5] does the source give for O=C(OCc1ccccc1)c1ccccc1O [Benzyl Salicylate] here?
The Bio-Degradable was “No”.

With OC/C=C/c1ccccc1 [CINNAMIC ALCOHOL, cinnamic alcohol] as the compound, how does the allergen classification [3] read?
The allergen classification was “strong allergens”.

What about the Readily biodegradable [1] of the same compound?
Its Readily biodegradable is “Yes”.

What about the LogP [2] of the same compound?
Its LogP is 1.95.

Which results are given for O=C/C=C/c1ccccc1 [CINNAMIC ALDEHYDE, cinnamic aldehyde]?
allergen classification [3]: strong allergens; Readily biodegradable [1]: Yes

Which Readily biodegradable [1] does the source give for CC/C=C\CCOC(C)=O [CIS-3-HEXENYL ACETATE, cis-3-hexenyl acetate] here?
Its Readily biodegradable is “Yes”.

What about the LogP [2] of the same compound?
Its LogP is 2.34.

Which Readily biodegradable [1] does the source give for CC/C=C\CCOC(=O)CC [CIS-3-HEXENYL PROPIONATE, cis-3-hexenyl propionate] here?
Its Readily biodegradable is “Yes”.

Which allergen classification [3] does the source give for CC(C)=CCCC(C)=CC=O [CITRAL, citral] here?
The allergen classification was “strong allergens”.

What about the biodegradability classification ([1]; OECD 301B, The Terpene Consortium Robust Summary) of the same compound?
The biodegradability classification was “readily biodegradable”.

And the Readily biodegradable [1]?
Its Readily biodegradable is “Yes”.

Which results are given for CC(C)=CCCC(C)CCO (stereo not shown) [CITRONELLOL, citronellol]?
biodegradability classification ([1]; OECD 301F, The Terpene Consortium Robust Summary): readily biodegradable; Readily biodegradable [1]: Yes

For COc1ccc(C)cc1 [Cresyl methyl ether], which Bio-Degradable [1, 4] is on record?
The Bio-Degradable was “Yes”.

Which Readily biodegradable [1] does the source give for CCCCCCC1CCC(=O)O1 (stereo not shown) [DECALACTONE GAMMA, decalactone gamma] here?
Its Readily biodegradable is “Yes”.

And the LogP [2]?
The LogP was 2.72.

Which Bio-Degradable [1, 4] does the source give for CCCc1ccc(O)c(OC)c1 [Dihydroeugenol] here?
Its Bio-Degradable is “No”.

For CCCC(=O)OC(C)(C)Cc1ccccc1 [Dimethyl benzyl carbonyl butyrate], which Bio-Degradable [1, 5] is on record?
Its Bio-Degradable is “No”.

With CCCCCCCCCCCC=O [Dodecanal] as the compound, how does the Bio-Degradable [1, 4] read?
Its Bio-Degradable is “Yes”.

Which results are given for CCCC(=O)OCC [ETHYL BUTYRATE, ethyl butyrate]?
Readily biodegradable [1]: Yes; LogP [2]: 1.73

With CCCCCC(=O)OCC [ETHYL CAPROATE, ethyl caproate] as the compound, how does the Readily biodegradable [1] read?
Its Readily biodegradable is “Yes”.

For CCCCCCCC(=O)OCC [ETHYL CAPRYLATE, ethyl caprylate], which Readily biodegradable [1] is on record?
The Readily biodegradable was “Yes”.

With CCCCCCC(=O)OCC [ETHYL HEPTANOTE, ethyl heptanoate] as the compound, how does the Readily biodegradable [1] read?
Its Readily biodegradable is “Yes”.

What does the source list for CCOC(=O)CC [ETHYL PROPIONATE, ethyl propionate]?
Readily biodegradable [1]: Yes; LogP [2]: 1.21

With CCOC(=O)CC(C)=O [Ethyl acetoaceteate] as the compound, how does the Bio-Degradable [1, 4] read?
Its Bio-Degradable is “Yes”.

For CCOC(=O)C12CCCC1C1CCC2C1 (stereo not shown) [Ethyl tricyclodecan-2-carboxylate], which Bio-Degradable [1, 5] is on record?
The Bio-Degradable was “No”.

Which Bio-Degradable [1, 5] does the source give for O=C1CCCCCCCCCCCC(=O)OCCO1 [Ethylene brassylate] here?
Its Bio-Degradable is “Yes”.

What about the Bio-Degradable [1, 4] of the same compound?
The Bio-Degradable was “Yes”.

With CC(=O)/C(C)=C/C1C(C)=CCCC1(C)C (stereo not shown) [Gamma methyl ionone] as the compound, how does the Bio-Degradable [1, 4] read?
The Bio-Degradable was “No”.

With O=Cc1ccc2c(c1)OCO2 [HELIOTROPINE, heliotropine] as the compound, how does the LogP [2] read?
Its LogP is 1.05.

For CCCCCCOC(C)=O [HEXYL ACETATE, hexyl acetate], which Readily biodegradable [1] is on record?
Its Readily biodegradable is “Yes”.

For CCCCCCC(C=O)=Cc1ccccc1 [Hexyl Cinnamic Aldehyde], which Bio-Degradable [1, 5] is on record?
Its Bio-Degradable is “Yes”.

For CCCCCCOC(=O)c1ccccc1O [Hexyl salicylate], which Bio-Degradable [1, 4] is on record?
The Bio-Degradable was “Yes”.

Which Readily biodegradable [1] does the source give for CC(=O)OCCC(C)C [ISOAMYL ACETATE, isoamyl acetate] here?
The Readily biodegradable was “Yes”.

And the LogP [2]?
Its LogP is 2.25.

For CC(C)[C@@H]1CC[C@@H](C)C[C@H]1O [L-MENTHOL, L-menthol], which Readily biodegradable [1] is on record?
The Readily biodegradable was “No”.

For C=C(C)[C@H]1CC=C(C)CC1 [LIMONENE, limonene], which Readily biodegradable [1] is on record?
Its Readily biodegradable is “No”.

What about the LogP [2] of the same compound?
The LogP was 4.57.

For C=CC(C)(O)CCC=C(C)C (stereo not shown) [LINALOOL, linalool], which Readily biodegradable [1] is on record?
Its Readily biodegradable is “No”.

And the Bio-Degradable [1, 5]?
Its Bio-Degradable is “No”.

What about the Bio-Degradable [1, 4] of the same compound?
Its Bio-Degradable is “No”.

For C=CC(C)(CCC=C(C)C)OC(C)=O (stereo not shown) [Linalyl acetate], which Bio-Degradable [1, 4] is on record?
Its Bio-Degradable is “No”.

For COC(=O)c1ccccc1N [METHYL ANTHRANILATE, methyl anthranilate], which Readily biodegradable [1] is on record?
The Readily biodegradable was “Med”.

With COC(=O)c1ccccc1O [METHYL SALICYLATE, methyl salicylate] as the compound, how does the Readily biodegradable [1] read?
Its Readily biodegradable is “Yes”.

With CCCCCC1C(=O)CCC1CC(=O)OC (stereo not shown) [Methyldihydrojasmonate] as the compound, how does the Bio-Degradable [1, 4] read?
Its Bio-Degradable is “Yes”.

For CCCCC1CCC(=O)O1 (stereo not shown) [OCTALACTONE, GAMMA, octalactone gamma], which Readily biodegradable [1] is on record?
The Readily biodegradable was “Yes”.

For CC(=O)OCCc1ccccc1 [PHENYLETHYL ACETATE, 2-phenylethyl acetate], which Readily biodegradable [1] is on record?
The Readily biodegradable was “Yes”.

What about the LogP [2] of the same compound?
The LogP was 2.30.

Which results are given for OCCc1ccccc1 [PHENYLETHYL ALCOHOL, 2-phenylethylalcohol]?
Readily biodegradable [1]: Yes; Bio-Degradable [1, 4]: Yes

With CC(C=O)Cc1ccc(C(C)(C)C)cc1 (stereo not drawn) [Para tert-butyl-alpha Methyl hydrocinnamic Aldehyde] as the compound, how does the allergen classification [3] read?
Its allergen classification is “strong allergens”.

What about the Bio-Degradable [1, 5] of the same compound?
Its Bio-Degradable is “No”.

With CC1=CCC(C(C)(C)O)CC1 (stereo not drawn) [TERPINEOL, ALPHA, alpha-terpineol] as the compound, how does the Readily biodegradable [1] read?
The Readily biodegradable was “No”.

And the LogP [2]?
Its LogP is 2.98.

With CCC/C=C/C=O [TRANS-2-HEXENAL, trans-2-hexenal] as the compound, how does the Readily biodegradable [1] read?
Its Readily biodegradable is “Yes”.

Which Bio-Degradable [1, 5] does the source give for CCCCCC1COCCC1OC(C)=O (stereo not shown) [Tetrahydro-3-penthyl-2H-pyran-4-yl acetate] here?
Its Bio-Degradable is “Yes”.

For C=CCCCCCCCCC=O [Undecelenic aldehyde], which Bio-Degradable [1, 4] is on record?
Its Bio-Degradable is “Yes”.

For COc1cc(C=O)ccc1O [VANILLIN, vanillin], which Readily biodegradable [1] is on record?
Its Readily biodegradable is “Yes”.

What about the Bio-Degradable [1, 4] of the same compound?
Its Bio-Degradable is “Yes”.

With Cc1occc(=O)c1O [VELTOL ™, 3-hydroxy-2-methyl-4-pyrone] as the compound, how does the Readily biodegradable [1] read?
Its Readily biodegradable is “Yes”.

With CC(C)=CCCC(C)=CCCC(C)=CCO [farnesol] as the compound, how does the allergen classification [3] read?
The allergen classification was “strong allergens”.

Which allergen classification [3] does the source give for CC=Cc1ccc(O)c(OC)c1 [isoeugenol] here?
The allergen classification was “strong allergens”.

What does the source list for CCCCCOC(C)=O [n-AMYL ACETATE, n-amyl acetate]?
Readily biodegradable [1]: Yes; LogP [2]: 2.30

Which Readily biodegradable [1] does the source give for CCCCCOC(=O)CC [n-AMYL PROPIONATE, n-amyl propionate] here?
The Readily biodegradable was “Yes”.

And the LogP [2]?
Its LogP is 2.66.
